Holding throughout (format): functional
Test [1] deals with Staphylococcus aureus. Kind of test: Antibacterial activity against erythromycin-susceptible Staphylococcus aureus ATCC 25923.
The test system of test [2] is Streptococcus pneumoniae. Kind of test: Antibacterial activity against erythromycin-susceptible Streptococcus pneumoniae ATCC 49619.
Test [3] relates to Staphylococcus aureus. In words: Antibacterial activity against methicillin-susceptible Staphylococcus aureus ATCC 29213.
Test [4] has as its system Streptococcus pyogenes. Kind of test: Antibacterial activity against erythromycin-susceptible Streptococcus pyogenes isolate S2.
For test [5], the system named is Streptococcus pyogenes. In words: Antibacterial activity against erythromycin-resistant Streptococcus pyogenes isolate R2.
The subject of test [6] is Streptococcus pneumoniae. In words: Antibacterial activity against erythromycin-resistant Streptococcus pneumoniae B1 expressing ermB gene.
Test [7] concerns Streptococcus pneumoniae. Kind of test: Antibacterial activity against erythromycin-resistant Streptococcus pneumoniae A22072 expressing mefA gene.
Test [8] relates to Streptococcus pneumoniae. Kind of test: Antibacterial activity against erythromycin-resistant Streptococcus pneumoniae AB11 expressing ermB/mefA gene.
A further test has as its system Escherichia coli. In words: Antibacterial activity against Escherichia coli ATCC 25922.
In the next test the test system is Pseudomonas aeruginosa. Kind of test: Antibacterial activity against Pseudomonas aeruginosa ATCC 27853.
The subject of test [9] is Streptococcus pneumoniae. In words: Potency index, ratio of azithromycin MIC to compound MIC for erythromycin-resistant Streptococcus pneumoniae B1 expressing ermB gene.
Test [10] has as its system Streptococcus pneumoniae. Kind of test: Potency index, ratio of azithromycin MIC to compound MIC for erythromycin-resistant Streptococcus pneumoniae A22072 expressing mefA gene.
For test [11], the system named is Streptococcus pneumoniae. Kind of test: Potency index, ratio of azithromycin MIC to compound MIC for erythromycin-resistant Streptococcus pneumoniae AB11 expressing ermB/mefA gene.
Test [12] relates to Streptococcus pyogenes. In words: Potency index, ratio of azithromycin MIC to compound MIC for erythromycin-resistant Streptococcus pyogenes isolate R2.
Test [13] relates to Streptococcus pyogenes. In words: Potency index, ratio of clarithromycin MIC to compound MIC for erythromycin-resistant Streptococcus pyogenes isolate R2.
Test [14] has as its system Streptococcus pneumoniae. In words: Potency index, ratio of clarithromycin MIC to compound MIC for erythromycin-resistant Streptococcus pneumoniae B1 expressing ermB gene.
Test [15] deals with Streptococcus pneumoniae. In words: Potency index, ratio of clarithromycin MIC to compound MIC for erythromycin-resistant Streptococcus pneumoniae A22072 expressing mefA gene.
In test [16] the test system is Streptococcus pneumoniae. Kind of test: Potency index, ratio of clarithromycin MIC to compound MIC for erythromycin-resistant Streptococcus pneumoniae AB11 expressing ermB/mefA gene.
The test system of test [17] is Staphylococcus aureus. In words: Potency index, ratio of azithromycin MIC to compound MIC for erythromycin-susceptible Staphylococcus aureus ATCC 25923.

≈ marks a conversion by molar mass, not a printed value.

As a reminder, the MIC is the smallest concentration in the dilution series that meets the test's criterion for growth inhibition. High values mean weaker potency, low ones greater potency. For the compound `CC[C@H]1OC(=O)[C@H](C)[C@@H](O[C@H]2C[C@@](C)(OC)[C@@H](OC(=O)NCc3cn(Cc4ccc(Cl)cc4)nn3)[C@H](C)O2)[C@H](C)[C@@H](O[C@@H]2O[C@H](C)C[C@H](N(C)C)[C@H]2O)[C@](C)(O)C[C@@H](C)CN(C)[C@H](C)[C@@H](OC(=O)NCc2ccc(OC)cc2)[C@]1(C)O`, the MIC against Staphylococcus aureus [1] is 0.008 µg/mL (≈ 0.00689 µM); with Streptococcus pneumoniae [2], 0.125 µg/mL (≈ 0.108 µM); in the test on Staphylococcus aureus [3], 16 µg/mL (≈ 13.8 µM); with Streptococcus pyogenes [4], under 0.002 µg/mL; in the test with Streptococcus pyogenes [5], 1 µg/mL (≈ 0.861 µM); against Streptococcus pneumoniae [6], 0.125 µg/mL (≈ 0.108 µM). For the same compound, the MIC against Streptococcus pneumoniae [7] turned out to be 0.06 µg/mL (≈ 0.0517 µM); in the test with Streptococcus pneumoniae [8], 0.125 µg/mL (≈ 0.108 µM); in the test on Escherichia coli, 16 µg/mL (≈ 13.8 µM); against Pseudomonas aeruginosa it was 8 µg/mL (≈ 6.89 µM). The Ratio with Streptococcus pneumoniae [9] is on record as 1024 - 2133; in the test with Streptococcus pneumoniae [10] it was 32 - 133; in the test on Streptococcus pneumoniae [11], 1024 - 2048; in the test with Streptococcus pyogenes [12] it was 128; in the test on Streptococcus pyogenes [13], 128; in the test with Streptococcus pneumoniae [14] it was 1024 - 2133. In addition, the Ratio with Streptococcus pneumoniae [15] is reported as 32 - 133; in the test with Streptococcus pneumoniae [16] it was 1024 - 2048; with Staphylococcus aureus [17] it was 31.
`CC[C@H]1OC(=O)[C@H](C)[C@@H](O[C@H]2C[C@@](C)(OC)[C@@H](OC(=O)NCc3cn(Cc4cccc(C)c4)nn3)[C@H](C)O2)[C@H](C)[C@@H](O[C@@H]2O[C@H](C)C[C@H](N(C)C)[C@H]2O)[C@](C)(O)C[C@@H](C)CN(C)[C@H](C)[C@@H](O)[C@]1(C)O`: the MIC stood at 1 µg/mL (≈ 1.02 µM) in the test on Staphylococcus aureus [1]; 0.5 µg/mL (≈ 0.512 µM) against Streptococcus pneumoniae [2]; 16 µg/mL (≈ 16.4 µM) in the test on Staphylococcus aureus [3]; 0.03 µg/mL (≈ 0.0307 µM) in the test on Streptococcus pyogenes [4]; 32 µg/mL (≈ 32.7 µM) against Streptococcus pyogenes [5]; 1 µg/mL (≈ 1.02 µM) with Streptococcus pneumoniae [6]. For the same compound, the minimal inhibitory concentration (MIC) in the test on Streptococcus pneumoniae [7] was 1 µg/mL (≈ 1.02 µM); in the test with Streptococcus pneumoniae [8], 1 µg/mL (≈ 1.02 µM); against Escherichia coli it was 32 µg/mL (≈ 32.7 µM); in the test on Pseudomonas aeruginosa, 32 µg/mL (≈ 32.7 µM).
`CC[C@H]1OC(=O)[C@H](C)[C@@H](O[C@H]2C[C@@](C)(OC)[C@@H](OC(=O)NCc3cn(Cc4c(Cl)cccc4Cl)nn3)[C@H](C)O2)[C@H](C)[C@@H](O[C@@H]2O[C@H](C)C[C@H](N(C)C)[C@H]2O)[C@](C)(O)C[C@@H](C)CN(C)[C@H](C)[C@@H](OC(=O)NCc2ccc(OC)cc2)[C@]1(C)O`: the minimal inhibitory concentration (MIC) is 0.25 µg/mL (≈ 0.209 µM) against Staphylococcus aureus [1]; 0.06 µg/mL (≈ 0.0502 µM) in the test on Streptococcus pneumoniae [2]; 16 µg/mL (≈ 13.4 µM) with Staphylococcus aureus [3]; under 0.002 µg/mL with Streptococcus pyogenes [4]; 1 µg/mL (≈ 0.837 µM) in the test with Streptococcus pyogenes [5]; 0.125 µg/mL (≈ 0.105 µM) in the test on Streptococcus pneumoniae [6]. Moreover, the MIC in the test on Streptococcus pneumoniae [7] worked out at 0.03 µg/mL (≈ 0.0251 µM); in the test on Streptococcus pneumoniae [8], 0.25 µg/mL (≈ 0.209 µM); against Escherichia coli, 16 µg/mL (≈ 13.4 µM); in the test on Pseudomonas aeruginosa, 16 µg/mL (≈ 13.4 µM). The Ratio with Streptococcus pneumoniae [9] is on record as 1024 - 2133; with Streptococcus pneumoniae [10], 32 - 133; with Streptococcus pneumoniae [11] it was 1024 - 2048; with Streptococcus pneumoniae [14], 1024 - 2133; in the test with Streptococcus pneumoniae [15] it was 32 - 133; in the test with Streptococcus pneumoniae [16] it was 1024 - 2048.
Take `CC[C@H]1OC(=O)[C@H](C)[C@@H](O[C@H]2C[C@@](C)(OC)[C@@H](OC(=O)NCc3cn(Cc4c(Cl)cccc4Cl)nn3)[C@H](C)O2)[C@H](C)[C@@H](O[C@@H]2O[C@H](C)C[C@H](N(C)C)[C@H]2O)[C@](C)(O)C[C@@H](C)CN(C)[C@H](C)[C@H]2OC(=O)O[C@@]21C`: the MIC in the test on Staphylococcus aureus [1] came out at 4 µg/mL (≈ 3.78 µM); against Streptococcus pneumoniae [2] it was 1 µg/mL (≈ 0.945 µM); with Staphylococcus aureus [3], 32 µg/mL (≈ 30.2 µM); against Streptococcus pyogenes [4], 0.125 µg/mL (≈ 0.118 µM); against Streptococcus pyogenes [5], 16 µg/mL (≈ 15.1 µM); with Streptococcus pneumoniae [6], 1 µg/mL (≈ 0.945 µM). Besides, the MIC came out at 0.25 µg/mL (≈ 0.236 µM) with Streptococcus pneumoniae [7], 0.25 µg/mL (≈ 0.236 µM) in the test with Streptococcus pneumoniae [8], 128 µg/mL (≈ 121 µM) against Escherichia coli and 64 µg/mL (≈ 60.5 µM) in the test with Pseudomonas aeruginosa. Further, the Ratio in the test with Streptococcus pneumoniae [9] is 128; in the test with Streptococcus pneumoniae [10], 16; with Streptococcus pneumoniae [11], 1024.
On to `CC[C@H]1OC(=O)[C@H](C)[C@@H](O[C@H]2C[C@@](C)(OC)[C@@H](OC(=O)NCc3cn(Cc4ccc(Cl)cc4Cl)nn3)[C@H](C)O2)[C@H](C)[C@@H](O[C@@H]2O[C@H](C)C[C@H](N(C)C)[C@H]2O)[C@](C)(O)C[C@@H](C)CN(C)[C@H](C)[C@@H](OC(=O)NCc2ccc(OC)cc2)[C@]1(C)O`, for which the MIC in the test with Staphylococcus aureus [1] is 0.25 µg/mL (≈ 0.209 µM); in the test on Streptococcus pneumoniae [2], 0.06 µg/mL (≈ 0.0502 µM); with Staphylococcus aureus [3] it was 16 µg/mL (≈ 13.4 µM); against Streptococcus pyogenes [4], under 0.002 µg/mL; against Streptococcus pyogenes [5], 8 µg/mL (≈ 6.69 µM); against Streptococcus pneumoniae [6], 0.125 µg/mL (≈ 0.105 µM). Further, the minimum inhibitory concentration (MIC) in the test with Streptococcus pneumoniae [7] worked out at 0.125 µg/mL (≈ 0.105 µM); in the test with Streptococcus pneumoniae [8] it was 0.25 µg/mL (≈ 0.209 µM); against Escherichia coli, 16 µg/mL (≈ 13.4 µM); against Pseudomonas aeruginosa, 16 µg/mL (≈ 13.4 µM). In addition, the Ratio is 1024 - 2133 in the test on Streptococcus pneumoniae [9]; 32 - 133 in the test with Streptococcus pneumoniae [10]; 1024 - 2048 in the test on Streptococcus pneumoniae [11]; 1024 - 2133 in the test with Streptococcus pneumoniae [14]; 32 - 133 in the test with Streptococcus pneumoniae [15]; 1024 - 2048 with Streptococcus pneumoniae [16].

The values are drawn from ChEMBL document CHEMBL4052714, “Synthesis and antibacterial activity of novel 4″-O-(1-aralkyl-1,2,3-triazol-4-methyl-carbamoyl) azithromycin analogs” (2017).
